PMC8521193, “A Novel Polyphenol Oxidoreductase OhLac from Ochrobactrum sp. J10 for Lignin Degradation” (Frontiers in Microbiology, 2021)

What was measured:
Assay in all cases: spectrophotometric oxidation, […] nm
Format in all cases: biochemical
OhLac [1] = tested on: T1, OhLac; conditions: pH 5.0, 40°C, Cu2+ 0.50 mM
T1 construct: full length, 837 bp ORF, 279 aa as printed, about 31 kDa; pET28a(+) NcoI/XhoI; N-terminal His6 printed (these sites would rather give a C-terminal His6); E. coli BL21(DE3), Ni-NTA; monomer

OhLac [2] = tested on: T1, OhLac; conditions: pH 5.0, 30°C, Cu2+ 5.00 mM
OhLac [3] = tested on: T1, OhLac; conditions: pH 3.0, 50°C, Cu2+ 0.25 mM

Q: Which Km (OhLac [1]) does the source give for COc1ccccc1O [guaiacol] here?
A: The Km was 523 ± 9.2 µM.

Q: With COc1cccc(OC)c1O [2,6-DMP] as the compound, how does the Km (OhLac [2]) read?
A: Its Km is 1.13 mM.

Q: For CCn1c(=NN=c2sc3cc(S(=O)(=O)O)ccc3n2CC)sc2cc(S(=O)(=O)O)ccc21 [ABTS], which Km (OhLac [3]) is on record?
A: Its Km is 1.06 mM.
